In patent US10240133B2, “ERK-derived peptides and uses thereof” (Yeda Research and Development Co. Ltd., priority 2013, dated 2019):

Assays:
[1] = molecular target: T1, interaction of Imp7 with ERK (Homo sapiens, UniProt O95373); assay: Coimmunoprecipitation of Imp7 with ERK; format: cell-based; settings: HeLa cells; 10 μM, 2 hours; TPA
T1 construct: endogenous in cells; host or cells: HeLa
Experimental: (A) EPE peptide prevents ERK1/2-importin7 interaction. HeLa cells were serum starved (0.1%, 16 hours), pretreated with EPE peptide, scrambled peptide (10 μM, 2 hours) or DMSO, and then stimulated with TPA (250 nM, 15 min). ERK1 were precipitated with αgERK1 Ab; importin7 co-immunoprecipitated with ERK1 was detected by WB with αimportin7 Ab. […] T47D, HeLa, MDA-MB-231 and A2352 cells were serum starved (0.1%, 16 hours), pretreated with EPE peptide, scrambled peptide (10 μM, 2 hours) or DMSO control, and then stimulated with TPA (250 nM, indicated times). Cell extracts were subjected to Western blot analysis with the indicated Abs. (C) EPE peptide inhibits phosphorylation of c-Myc and Elk1 in B-Raf melanomas. A2158 and A2352 cells were treated with scrambled and EPE peptide for two hours and then stimulated with the indicated concentration of TPA for 30 min. […] (D) Quantification of some of the results in B and C. […]
(i) Preparation of cellular extracts for Western Blotting: Cells were rinsed twice with ice-cold PBS and scraped into Radio-immunoprecipitation assay buffer (RIPA; 137 mM NaCl, 20 mM Tris (pH 7.4), 10% glycerol, 1% Triton X-100, 0.5% deoxycholate, 0.1% SDS, 2 mM EDTA, 1 mM PMSF, and 20 μM leupeptin). The extracts were centrifuged (20,000×g, 15 min, 4° C.), and the supernatants were further analyzed by Western blotting. […]

[2] = test system: HeLa and T47D cells; assay: Proliferation assay (Methylene Blue), optimal administration conditions; format: cell-based; settings: administered every 24 h in fresh medium
Experimental: FIGS. 9A-9B illustrate the dose response of the EPE peptides on melanoma cells proliferation. LOXIMVI (FIG. 9A) and A2352 (FIG. 9B) melanoma cells were treated with the indicated doses of the EPE or Scr peptides. Presented as percent of viable cells at 72 h/initial cell number.
All cells, except of MCF-10A, were seeded into 12-well cell plates in 1% FBS medium. MCF-10A cells were seeded in their complete medium diluted 5 fold. DMSO, Scr peptide, EPE peptide, or U0126 (final concentration of 10 μM each) were added to the appropriated wells four hours later. Every day medium was changed to fresh one containing the same agents. The number of viable cells was measured by Methylene Blue assay at 72 h after cell seeding. Shortly, cells were fixed with 4% Formaldehyde for 2 h at 23° C., washed once with 0.1M Borate Buffer pH 8.5 and stained with of 1% Methylene Blue in 0.1M Borate Buffer for 10 min. Color was extracted by adding 0.1 M HCl for 3 h at 23° C., and examined at 595 nm. For time course experiments, viable cells were measured at 0, 24, 48, 72 and 96 h after cell seeding. For dose response experiments we treaded the cells with 0.1, 1, 3, 10, or 30 μM of peptides for 72 h, as described above.

[3] = test system: A2352 xenografts; assay: Tumor disappearance and recurrence in A2352 xenografts, EPE peptide compared with PLX4032; format: in vivo, SCID mice
Experimental: FIGS. 6A-6B illustrate that the EPE peptide prevents the growth of human tumor xenografts. CD-1 nude mice were inoculated with MDA-MB-231, LOXIMVI and HCT-116 cells, and SKID mice were inoculated with A2352 cells. Upon tumors establishment, the mice were treated intravenously with the DMSO as well as EPE or Scr peptides in the indicated doses, 3 times a week. The results are averages of 5 mice in each experimental group. The X, Y, Z dimensions of the tumors were measured with a caliper, and the volume was calculated accordingly. The significance of all experiments was at least P<0.001. (B) The EPE peptide prevents tumor recurrence on melanoma xenograft. SCID mice were inoculated with A2352 cells. Upon establishment of tumors mice were treated intravenously with 15 mg/kg EPE peptide (n=7) or intraperitonealy with 15 mg/kg PLX4032 (n=5), at the indicated dose 3 times a week. Tumor size was recorded at the same time using a caliper. Following 3 weeks of treatment, mice were kept for further evaluation monitoring for any tumor recurrence of the effective treated melanoma xenografts. Experiment was concluded 110 days post inoculation (11 weeks after the last treatment) and the overall state of the animals was evaluated. sac=sacrificed, recur=recurrence, met=metastasis.
Tumor dimensions were measured with a digital sliding caliper.

T1 sequence (O95373 whole entry): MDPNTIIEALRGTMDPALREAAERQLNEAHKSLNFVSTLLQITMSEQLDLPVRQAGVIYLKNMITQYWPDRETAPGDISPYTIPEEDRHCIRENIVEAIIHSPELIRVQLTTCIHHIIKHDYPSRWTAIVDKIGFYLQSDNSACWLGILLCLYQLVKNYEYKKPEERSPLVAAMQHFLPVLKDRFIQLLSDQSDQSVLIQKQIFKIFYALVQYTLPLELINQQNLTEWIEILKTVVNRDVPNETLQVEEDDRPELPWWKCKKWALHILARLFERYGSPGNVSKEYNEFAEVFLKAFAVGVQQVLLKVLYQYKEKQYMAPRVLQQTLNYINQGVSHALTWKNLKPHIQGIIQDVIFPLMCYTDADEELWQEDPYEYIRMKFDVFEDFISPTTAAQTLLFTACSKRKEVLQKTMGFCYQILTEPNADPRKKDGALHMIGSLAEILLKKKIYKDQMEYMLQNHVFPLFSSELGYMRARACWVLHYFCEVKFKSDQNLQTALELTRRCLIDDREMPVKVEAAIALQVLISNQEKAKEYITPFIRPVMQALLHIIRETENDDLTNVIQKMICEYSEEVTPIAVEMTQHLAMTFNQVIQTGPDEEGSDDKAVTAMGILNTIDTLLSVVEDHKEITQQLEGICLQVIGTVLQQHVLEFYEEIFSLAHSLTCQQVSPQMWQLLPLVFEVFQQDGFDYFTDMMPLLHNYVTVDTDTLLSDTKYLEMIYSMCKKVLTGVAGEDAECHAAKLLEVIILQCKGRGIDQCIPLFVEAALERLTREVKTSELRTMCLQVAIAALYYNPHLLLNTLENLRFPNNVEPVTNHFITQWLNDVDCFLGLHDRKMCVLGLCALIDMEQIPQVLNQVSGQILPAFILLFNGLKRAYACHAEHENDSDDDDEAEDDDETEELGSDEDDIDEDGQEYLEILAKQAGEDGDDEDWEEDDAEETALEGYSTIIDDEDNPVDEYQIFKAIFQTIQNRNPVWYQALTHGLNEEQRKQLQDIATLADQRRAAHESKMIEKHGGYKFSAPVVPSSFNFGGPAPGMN

GQLNHILGILGEPEQED (Synthetic peptide (EPE)) [EPE peptide, NTS-derived peptide with phosphomimetic EPE motif]
interaction of Imp7 with ERK [1]: prevented the interaction of Imp7 with ERK
optimal administration conditions (maximal effect compared to Scr peptide) [2]: 10 µM
time to complete disappearance of tumors ([3]; 15 mg/kg, 3 times a week): 10 to 23 days
tumor disappearance ([3]; 15 mg/kg, 3 times a week, 3 weeks, EPE i.v. (n=7), PLX4032 i.p. (n=5), initial ~80 mm3 tumors): complete disappearance of the tumors of all mice
overall state of animals after treatment ([3]; follow up after last treatment, incl. 5 other animals in a repeating experiment): remained healthy up to 11 weeks after treatment
mice with tumor recurrence ([3]; follow up for up to 11 weeks after last treatment): None
